Results: US11564923B2, “Compounds and pharmaceutical compositions thereof for the treatment of inflammatory disorders” (Galapagos NV, priority 2017, dated 2023)

Experiments:
[1] = system: IFNα activation of STAT1 in PBMC; test: IFNα activation of STAT1 in PBMC; format: cell-based; conditions: Homo sapiens; IFNα activation of STAT1 in PBMC; average IC50; read-out: IFNα signaling inhibitory potency IC50
Protocol: After these 2 wash steps the cell pellet is dissolved in ammonium chloride buffer (1.5 M NH4Cl, 100 mM NaHCO3 and 10 mM Na2.EDTA) for lysis of the red blood cells.
PBMC are treated with test compound for 30 min at 37° C. 5% CO2. […] After 30 min of test compound/vehicle pre-treatment, PBMC are stimulated for 30 min at 37° C. 5% CO2 with recombinant human IFNα (PeproTech, catalog number 300-02A) at a final concentration of 5 ng/mL by addition of 20 μL (10× concentrated) cytokine trigger to obtain a final volume of 200 μL per well.
After 30 min of cytokine stimulation, 200 μL of cell suspension is transferred to a 96-well V-bottom plate, centrifugated for 5 min at 1000 rpm to pellet cells, followed by removal of supernatant.
(§1) The percentage inhibition is calculated as: […]
RCLU(vehicle control): Relative Chemiluminescent signal determined in presence of vehicle and trigger
RCLU(test compound): Relative Chemiluminescent signal determined in presence of test compounds and trigger
RCLU(positive control): Relative Chemiluminescent signal determined in presence of positive control and trigger
PIN values are plotted for compounds tested in dose-response and average IC50 values are derived using GraphiPad Prism Software applying non-linear regression (sigmoidal) curve fitting.

[2] = molecular target: T1, Recombinant human TYK2 catalytic domain (amino acids 871-1187) (Homo sapiens, UniProt P29597); test: TYK2 radioactive assay polyGT substrate; format: biochemical; also: 0.1 µM ATP
T1 construct: catalytic domain (amino acids 871-1187)
T1 sequence (P29597 871-1187): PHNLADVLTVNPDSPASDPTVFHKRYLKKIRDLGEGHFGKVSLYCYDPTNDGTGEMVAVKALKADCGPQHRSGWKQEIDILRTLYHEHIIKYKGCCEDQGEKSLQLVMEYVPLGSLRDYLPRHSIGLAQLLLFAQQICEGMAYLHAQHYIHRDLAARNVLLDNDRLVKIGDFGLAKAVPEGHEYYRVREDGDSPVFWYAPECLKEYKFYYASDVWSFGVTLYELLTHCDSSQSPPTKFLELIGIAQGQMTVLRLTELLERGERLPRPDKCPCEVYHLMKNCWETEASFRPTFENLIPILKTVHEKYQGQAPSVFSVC
Protocol: After 120 min at 30° C., reactions were stopped by adding 25 μL/well of 150 mM phosphoric acid. […] Plates were washed 6 times with 300 μL per well of a 75 mM phosphoric acid solution and the bottom of the plates is sealed. […] Kinase activity is calculated by subtracting counts per min (cpm) obtained in the presence of a positive control inhibitor (10 μM staurosporine) from cpm obtained in the presence of vehicle. The ability of a test compound to inhibit this activity (or percentage inhibition) is determined as: […]
cpm test compound=cpm determined for sample with test compound present cpm control=cpm determined for sample with positive control inhibitor cpm vehicle=cpm determined in the presence of vehicle
Dose dilution series were prepared for the compounds enabling the testing of dose-response effects in the TYK2 assay and the calculation of the IC50 for each compound. Each compound is routinely tested at concentration of 20 μM followed by a 1/5 serial dilution, 10 points in a final concentration of 1% DMSO.

[3] = system: IL-12 activation of STAT4 in NK-92 cells; test: IL-12 activation of STAT4 in NK-92 cells using AphaLISA SureFire technology; format: cell-based; conditions: Homo sapiens, NK92; IL-12 activation of STAT4 in NK-92 cells, AlphaLISA SureFire; average IC50; read-out: IL12 pSTAT4 IC50
Protocol: IL-2 is added freshly to the medium with each medium refreshment step. Cells are cultured in a humidified incubator at 37° C. 5% CO2.
A subcultured fraction of NK-92 cells is washed once in culture medium without rhIL-2 the day before the experiment and incubated overnight in a culture flask.
5% CO2. […] NK-92 cells are triggered with rhIL-12 for 30 min at 37° C. 5% CO2.
After 30 min of cytokine stimulation the cells are lysed by addition of 15 μL 5× lysis buffer (supplemented with the AlphaLISA kit). After 10 minutes, plates are frozen at −80° C. overnight and the next day the levels of phospho-STAT4 are quantified using the AlphaLISA SureFire ULTRA p-STAT4 (Tyr693) (Perkin Elmer, Catalogue number ALSU-PST4-A10K) according to the manufacturers instructions. AlphaLISA signal (relative light units) is measured using an Envision (Perkin Elmer).
as §1
RLU(trigger/veh): Relative lumescent signal determined in presence of vehicle and trigger
RLU(test compound): Relative luminescent signal determined in presence of test compounds and trigger
PIN values are plotted for compounds tested in dose-response and IC50 values are derived using GraphPad Prism Software applying non-linear regression (sigmoidal) curve fitting. The data are expressed as the average IC50 from different experiments.

With `Cc1cc(C#N)ncc1Oc1cc(Nc2ccc(C(=O)N3C[C@@H](C)O[C@@H](C)C3)cn2)c2ncn(C)c2n1` [Compound 148, 4-methyl-5-[3-methyl-7-[[5-[rac-(2R,6S)-2,6-dimethylmorpholine-4-carbonyl]pyridin-2-yl]amino]imidazo[4,5-b]pyridn-5-yl]oxypyridine-2-carbonitrile] the IC50 [1] was 142 nM, the IC50 [2] was 2.08 nM and the IC50 [3] was 160 nM.

Work on `Cc1cc(C#N)ncc1Oc1cc(Nc2ccc(C(=O)N3CC[C@@H](N(C)C)C3)cn2)c2ncn(C)c2n1` [Compound 107, 5-[7-[[5-[(3R)-3-(dimethylamino)pyrrolidine-1-carbonyl]pyridin-2-yl]amino]-3-methylimidazo[4,5-b]pyridin-5-yl]oxy-4-methylpyridine-2-carbonitrile] yielded an IC50 [1] of 110 nM, an IC50 [2] of 5.44 nM and an IC50 [3] of 622 nM.

With `Cc1cc(C#N)ncc1Oc1cc(Nc2ccc(C(=O)N3CCC(C)(O)CC3)cn2)c2ncn(C)c2n1` [Compound 138, 5-[7-[[5-(4-hydroxy-4-methylpiperidine-1-carbonyl)pyridin-2-yl]amino]-3-methylimidazo[4,5-b]pyridin-5-yl]oxy-4-methylpyridine-2-carbonitrile] the IC50 [1] was 91 nM, the IC50 [2] was 1.66 nM and the IC50 [3] was 332 nM.

`Cc1cc(C#N)ncc1Oc1cc(Nc2ccc(C(=O)N3CC(O)(C4CC4)C3)cn2)c2ncn(C)c2n1` [Compound 113, 5-[7-[[5-(3-cyclopropyl-3-hydroxy-azetidine-1-carbonyl)-2-pyridyl]amino]-3-methyl-imidazo[4,5-b]pyridin-5-yl]oxy-4-methyl-pyridine-2-carbonitrile] was tested, and the IC50 [2] was 2.05 nM and the IC50 [3] was 190 nM.

In the case of `Cc1cc(C#N)ncc1Oc1cc(Nc2ccc(C(=O)N3CCO[C@H](C)C3)cn2)c2ncn(C)c2n1` [Compound 145, 4-methyl-5-[3-methyl-7-[[5-[(2R)-2-methylmorpholine-4-carbonyl]pyridin-2-yl]amino]imidazo[4,5-b]pyridin-5-yl]oxypyridine-2-carbonitrile], the IC50 [1] is reported as 134 nM, the IC50 [2] is reported as 2 nM and the IC50 [3] is reported as 238 nM.

Compound `Cc1cc(C#N)ncc1Oc1cc(Nc2ccc(N3CC(CN(C)C)C3)nn2)c2ncn(C)c2n1` [Compound 40, 5-{7-[6-(3-Dimethylaminomethyl-azetidin-1-yl)-pyridazin-3-ylamino]-3-methyl-3H-imidazo[4,5-b]pyridin-5-yloxy}-4-methyl-pyridine-2-carbonitrile] has an IC50 [1] of 115 nM, an IC50 [2] of 9.69 nM and an IC50 [3] of 3530 nM.

`Cc1cc(C#N)ncc1Oc1cc(Nc2ccc(C(=O)N3C[C@@H](C)O[C@H](C)C3)cn2)c2ncn(C)c2n1` (racemic) [Compound 149, 4-methyl-5-[3-methyl-7-[[5-[rac-(2R,6R)-2,6-dimethylmorpholine-4-carbonyl]pyridin-2-yl]amino]imidazo[4,5-b]pyridin-5-yl]oxypyridine-2-carbonitrile] was tested, and the IC50 [1] was 218 nM, the IC50 [2] was 3.66 nM and the IC50 [3] was 347 nM.

In the case of `Cc1cc(C#N)ncc1Oc1cc(Nc2ccc(C(=O)N3CCOC[C@H]3C)cn2)c2ncn(C)c2n1` [Compound 146, 4-methyl-5-[3-methyl-7-[[5-[(3R)-3-methylmorpholine-4-carbonyl]pyridin-2-yl]amino]imidazo[4,5-b]pyridin-5-yl]oxypyridine-2-carbonitrile], the IC50 [1] is reported as 122 nM and the IC50 [2] is reported as 1.15 nM.

In the case of `Cc1cc(C#N)ncc1Oc1cc(Nc2ccc(C(=O)N3CCOCC3)nn2)c2ncn(C)c2n1` [Compound 108, 4-methyl-5-[3-methyl-7-[[6-(morpholine-4-carbonyl)pyridazin-3-yl]amino]imidazo[4,5-b]pyridin-5-yl]oxypyridine-2-carbonitrile], the IC50 [1] is reported as 52 nM, the IC50 [2] is reported as 2.63 nM and the IC50 [3] is reported as 94 nM.

Work on `COCCO[C@@H]1CCN(C(=O)c2ccc(Nc3cc(Oc4cnc(C#N)cc4C)nc4c3ncn4C)nc2)C1` [Compound 129, 5-[7-[[5-[(3R)-3-(2-methoxyethoxy)pyrrolidine-1-carbonyl]pyridin-2-yl]amino]-3-methylimidazo[4,5-b]pyridin-5-yl]oxy-4-methylpyridine-2-carbonitrile] yielded an IC50 [2] of 5.84 nM.

`Cc1cc(C#N)ncc1Oc1cc(Nc2ccc(C(=O)N3CC(CO)(CO)C3)cn2)c2ncn(C)c2n1` [Compound 135, 5-[7-[[5-[3,3-bis(hydroxymethyl)azetidine-1-carbonyl]pyridin-2-yl]amino]-3-methylimidazo[4,5-b]pyridin-5-yl]oxy-4-methylpyridine-2-carbonitrile] gave an IC50 [2] of 2.08 nM.

`Cc1cc(C#N)ncc1Oc1cc(Nc2ccc(N3CCN(CC(F)(F)F)CC3)nn2)c2ncn(C)c2n1` [Compound 42, 4-Methyl-5-(3-methyl-7-{6-[4-(2,2,2-trifluoro-ethyl)-piperazin-1-yl]-pyridazin-3-ylamino}-3H-imidazo[4,5-b]pyridin-5-yloxy)-pyridine-2-carbonitrile] showed an IC50 [2] of 2.74 nM.

In the case of `Cc1cc(C#N)ncc1Oc1cc(Nc2ccc(N3CC(N(C)C)C3)nn2)c2ncn(C)c2n1` [Compound 143, 5-[7-[[6-[3-(dimethylamino)azetidin-1-yl]pyridazin-3-yl]amino]-3-methylimidazo[4,5-b]pyridin-5-yl]oxy-4-methylpyridine-2-carbonitrile], the IC50 [2] is reported as 4.55 nM.

In the case of `Cc1cc(C#N)ncc1Oc1cc(Nc2ccc(C(=O)N(C)C)c(C)n2)c2ncn(C)c2n1` [Compound 77, 6-[[5-[(6-cyano-4-methyl-3-pyridyl)oxy]-3-methyl-imidazo[4,5-b]pyridin-7-yl]amino]-N,N,2-trimethyl-pyridine-3-carboxamide], the IC50 [2] is reported as 2.98 nM.

In the case of `Cc1cc(C#N)ncc1Oc1cc(Nc2ccc(C(=O)N3CCOC(C(F)(F)F)C3)cn2)c2ncn(C)c2n1` (stereo not shown) [Compound 155, 4-methyl-5-[3-methyl-7-[[5-[2-(trifluoromethyl)morpholine-4-carbonyl]pyridin-2-yl]amino]imidazo[4,5-b]pyridin-5-yl]oxypyridine-2-carbonitrile], the IC50 [2] is reported as 2.05 nM.

In the case of `Cc1cc(C#N)ncc1Oc1cc(Nc2ccc(C(=O)N3CC4(CN(C)C4)C3)cn2)c2ncn(C)c2n1` [Compound 123, 4-methyl-5-[3-methyl-7-[[5-(6-methyl-2,6-diazaspiro[3.3]heptane-2-carbonyl)-2-pyridyl]amino]imidazo[4,5-b]pyridin-5-yl]oxy-pyridine-2-carbonitrile], the IC50 [2] is reported as 9.38 nM.

`Cc1cc(C#N)ncc1Oc1cc(Nc2ccc(C(=O)N3CCC(N(C)C(=O)OC(C)(C)C)C3)cn2)c2ncn(C)c2n1` (stereo not shown) [Compound 130, (1-{6-[5-(6-Cyano-4-methyl-pyridin-3-yloxy)-3-methyl-3H-imidazo[4,5-b]pyridin-7-ylamino]-pyridine-3-carbonyl}-pyrrolidin-3-yl)-methyl-carbamic acid tert-butyl ester] gave an IC50 [2] of 4.67 nM.

`Cc1cc(C#N)ncc1Oc1cc(Nc2ccc(C(=O)N3CC4(CCO4)C3)cn2)c2ncn(C)c2n1` [Compound 120, 4-methyl-5-[3-methyl-7-[[5-(3-oxa-6-azaspiro[3.3]heptane-6-carbonyl)-2-pyridyl]amino]imidazo[4,5-b]pyridin-5-yl]oxy-pyridine-2-carbonitrile] gave an IC50 [2] of 1.57 nM.
